Reference: patent US10357477B2, “Anticancer compounds” (REGENTS OF THE UNIVERSITY OF MINNESOTA, priority 2016, dated 2019)

Key:
[1] = Caco-2 permeability assay; type: in vitro ADME; conditions: human, pH 7.4
Protocol: Cell Culture. The human colon adenocarcinoma cell line Caco-2 was purchased from ATCC (American Type Culture Collection, Manassas, Va.), and was cultured in a humidified atmosphere of 5% CO2 at 37° C. Caco-2 cells were cultured in DMEM with 10% FBS, 1% NEAA, 1% GlutaMax and 1% penicillin and streptomycin solution. The culture medium was changed every other day during cell growth and differentiation. On achieving 80-90% confluence, the cells were rinsed with pre-warm DPBS (pH 7.4) and split using trypsin. The cells were then seeded on membranes of Millipore Millicell-24 cell culture device. The transepithelial electrical resistance (TEER) were assessed to reflect membrane integrity using a Millicells® ERS-2 (Millipore, USA). The Caco-2 cell monolayers were used for transport experiments on day 21 post-seeding with TEER values >500 Ω·cm2. Bidirectional Transport Experiments. Before the transport experiments, the cell monolayer was washed three times with HBSS. Then, the plates were incubated in fresh permeability assay buffer (HBSS containing 10 mM glucose and 20 mM HEPES, pH 7.4) at 37° C. The experiments were conducted by spiking test compounds to either the apical (AP, 0.4 mL) or basolateral side (BL, 0.8 mL), while the receiving chamber contained the corresponding volume of pre-warmed permeability assay buffer. Every experiment was repeated in duplicate, and the plates were incubated in an orbital shaker at 37° C., 50 rpm/min. To assess the drug transport, at the incubation time of 20, 40, 60 and 80 min, aliquot was removed and was immediately replenished with an equal volume of permeability assay buffer. The samples were then subjected to LC/MS/MS analysis. The apparent permeability coefficient was indicated by the absorption rate constant Papp. It could be calculated as PBA (measured in BL to AP direction) or PAB (measured in AP to BL direction), using the equation of Papp=(dQ/dt)/(A×C0). dQ/dt is the rate at which the compound appears in the receiver chamber (nmol/s), A is the surface area of the filter membrane (0.7 cm2) and C0 is the initial concentration in the donor chamber (μM). Efflux ratio (ER) was calculated by the equation of ER=PBA/PAB, where PBA is the Papp value measured in BL to AP direction, and PAB is the Papp value measured in AP to BL direction.

MIA PaCa-2 cells = assay: Cell viability assay (MTT) in MIA PaCa-2 cells; type: cell-based; conditions: Homo sapiens, antiproliferative activity, 72 h
Procedure, shortened: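 MIA PaCa-2 cells exposed 72 h at 37° C to 2-fold serial compound dilutions from 100 μM final, 0.5% DMSO, in triplicate. Viability by MTT (3 h), formazan read at 570 nm minus 650 nm; EC50 from curve fit.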

**Q.** Which Papp A→B at 80 min ([1]; apical to basolateral) does the source give for `CNC(=O)c1cccc(Cn2nc(C)c(NC(=O)c3ccc(COc4ccc(C(F)(F)F)cc4)cc3)c2C)c1` [Compound D9c, 3-((3,5-Dimethyl-4-(4-((4-(trifluoromethyl)phenoxy)-methyl)benzamido)-1H-pyrazol-1-yl)methyl)-N-methylbenzamide] here?
**A.** 8.26 ×10⁻⁶ cm/s

**Q.** And the Papp B→A at 80 min ([1]; basolateral to apical)?
**A.** 19.3 ×10⁻⁶ cm/s

**Q.** And the EC50 (MIA PaCa-2 cells)?
**A.** 800 nM
